Laboratory results taken from PMC11046380 (2024).

What was measured:
[1] = system: BMAA_159_min (FAM-labeled) (DNA, aptamer) GGCTCGGCCCTGGGTGAGGGGCGCAGTGGGGTGTAGCCAG; assay: BMAA-conjugated plate fluorescence assay; details: 100 mM NaCl, 5 mM MgCl2, 20 mM Tris pH 7.6, room temperature, immobilised compound on streptavidin plate
[2] = system: BMAA_165_min (FAM-labeled) (DNA, aptamer) GGGCGTGTGTGGGAGGGGGCACTTCGTCGGGGTGAGCCAG; assay: BMAA-conjugated plate fluorescence assay; details: 100 mM NaCl, 5 mM MgCl2, 20 mM Tris pH 7.6, room temperature, immobilised compound on streptavidin plate
[3] = system: BMAA_165_min (biosensing) (DNA, aptamer) GGGCGTGTGTGGGAGGGGGCACTTCGTCGGGGTG; assay: electrochemical aptamer sensor (SWV, EIS); details: 4 mM NaCl, 0.2 mM MgCl2
[4] = system: BMAA_159 (DNA, aptamer) TGTACCGTCTGAGCGATTCGTACGGCTCGGCCCTGGGTGAGGGGCGCAGTGGGGTGTAGCCAGTCAGTGTTAAGGAGTGC; assay: SYBR Green I fluorescence displacement; details: 100 mM NaCl, 5 mM MgCl2; 20 mM Tris pH 7.6, room temperature; SYBR Green I displaced; one-site fit
[5] = system: BMAA_38 (DNA, aptamer) TGTACCGTCTGAGCGATTCGTACGGGGGTTCACGCTCGAGGGGGCCACAGGGGGAGTAGCCAGTCAGTGTTAAGGAGTGC; assay: SYBR Green I fluorescence displacement; details: 100 mM NaCl, 5 mM MgCl2, 20 mM Tris pH 7.6, room temperature, four of five candidates bind, not named
[6] = system: BMAA_172 (DNA, aptamer) TGTACCGTCTGAGCGATTCGTACGGGGGCCAGTGAATGAGTTGGGGTGGTAATGGGGAGCCAGTCAGTGTTAAGGAGTGC; assay: SYBR Green I fluorescence displacement; details: 100 mM NaCl, 5 mM MgCl2, 20 mM Tris pH 7.6, room temperature, four of five candidates bind, not named
[7] = system: BMAA_165 (DNA, aptamer) TGTACCGTCTGAGCGATTCGTACGGGCGTGTGTGGGAGGGGGCACTTCGTCGGGGTGAGCCAGTCAGTGTTAAGGAGTGC; assay: SYBR Green I fluorescence displacement; details: 100 mM NaCl, 5 mM MgCl2; 20 mM Tris pH 7.6, room temperature; SYBR Green I displaced; one-site fit
[8] = system: BMAA_159_min (DNA, aptamer) GGCTCGGCCCTGGGTGAGGGGCGCAGTGGGGTGTAGCCAG; assay: 1H NMR titration; details: 100 mM NaCl, 2 mM MgCl2; 20 mM sodium phosphate, 10% D2O, 298 K; qualitative
[9] = system: BMAA_165_min (DNA, aptamer) GGGCGTGTGTGGGAGGGGGCACTTCGTCGGGGTGAGCCAG; assay: 1H NMR titration; details: 100 mM NaCl, 2 mM MgCl2; 20 mM sodium phosphate, 10% D2O, 298 K; qualitative
[10] = system: BMAA_159_min (DNA, aptamer) GGCTCGGCCCTGGGTGAGGGGCGCAGTGGGGTGTAGCCAG; assay: circular dichroism; details: 100 mM NaCl (100 mM KCl in legend), 5 mM MgCl2; 20 mM Tris pH 7.6, room temperature; qualitative
[11] = system: BMAA_165_scrambled (DNA, aptamer) TGTACCGTCTGAGCGATTCGTACAGTCGTTGGGGGGGGGGGTGAGCGTTGCGCGCGTAGCCAGTCAGTGTTAAGGAGTGC; assay: SYBR Green I fluorescence displacement; details: 100 mM NaCl, 5 mM MgCl2; 20 mM Tris pH 7.6, room temperature; SYBR Green I displaced; up to 25 μM BMAA

apparent Kd [1] [nM]	apparent Kd [2] [nM]	binding [3]	Kd [4] [nM]	apparent Kd [5]	apparent Kd [6]	Kd [7] [nM]	binding [8]	binding [9]	binding [10]	binding [11]	Structure (SMILES)
6000 ± 1000	630 ± 20	–	–	–	–	–	–	–	–	–	CNCC(NC(=O)CCOCCOCCOCCOCCNC(=O)CCCC[C@@H]1SC[C@@H]2NC(=O)N[C@@H]21)C(=O)O (some centres unmarked)
–	–	yes	2200 ± 100	18.6 (3.08-102) uM	6.50 (5.23-9.56) uM	320 ± 20	yes	yes	yes	no	CNC[C@H](N)C(=O)O
